{
  "source": "patent US9114180B2",
  "about": "“Malodor neutralizing compositions containing acids and alicyclic ketones” (Robertet, Inc., priority 2012, dated 2015)",
  "key": {"[1]": {"test": "Malodor evaluation panel, synthetic bathroom malodor on cotton swatches", "conditions": "for Score of Ketone Alone @ 1%: average of 14; for Score of Combination @ 1% + 1%: ketone 1% + undecylenic acid 1%; for (Score of Acid) − (Score of Combination) / (Score of Ketone) − (Score of Combination): synthetic bathroom malodor; for (Score of Acid) − (Score of Combination): acid = undecylenic acid; for (Score of Ketone) − (Score of Combination): combination with undecylenic acid"}, "[2]": {"test": "Malodor evaluation panel, cigarette smoke on cotton swatches", "conditions": "for (Score of Acid) − (Score of Combination) / (Score of Ketone) − (Score of Combination): cigarette smoke malodor; for Score of Ketone Alone @ 1%: average of 14, Table 3", "procedure": "The source of the malodor tested was cigarette smoke. Swatches of 100% untreated cotton fabric were cut into 15 cm (6-inch) squares and were placed in large plastic containers. Two cigarettes were smoked up inside the plastic containers containing the swatches with closed lids. The environment inside each closed container was allowed to equilibrate for 24 hours. Onto each swatch, 3.0 grams of a composition was sprayed. As a control, 3.0 grams of water was sprayed on certain swatches. Each swatch was placed in the middle of a two by two foot (61×61 cm) cubicle and all doors were closed. Actual testing began after thirty minutes. Each member of the panel was asked to sniff the malodor control first and was notified that the control has a rating of 7—indicating very strong malodor. They were then asked to proceed to sniff the other samples and provide a rating for malodor remaining. Thus, the remaining malodor was evaluated on a sliding scale, with 1 being very weak malodor. The panelists were instructed to ignore any fragrance that they may detect and rate only the malodor. […] Neodol 91-8 and the fabric spray base were the same as those described in Example 1."}, "[3]": {"test": "Malodor evaluation panel, cat urine on cotton swatches", "set-up": "key to (Score of Ketone) − (Score of Combination) / (score of citric acid) − (score of combination): difference of malodor scores, 1 = very weak to 7 = very strong (control)", "conditions": "for (Score of Ketone) − (Score of Combination) / (score of citric acid) − (score of combination): cat urine malodor, combination with citric acid; for Score of combination 1% + 1% / Score alone 1% (alicyclic ketone): remaining cat urine malodor; for Score of combination 1% + 1%: scale 1-7, ketone 1% + citric acid 1% in spray, average of 14; for Score alone 1% (alicyclic ketone): scale 1 very weak to 7 (control, very strong), ketone 1% in spray, average of 14 panelists", "text": "The source of the malodor tested was cat urine. […] A period of three minutes was allowed for the urine to be absorbed by the fabric. Onto each swatch, 3.0 grams of a composition was sprayed. As a control, 3.0 grams of water was sprayed on certain swatches. Each swatch was placed in the middle of a two by two foot (61×61 cm) cubicle and all doors were closed. Actual testing began after thirty minutes. Each member of the panel was asked to sniff the malodor control first and was notified that the control has a rating of 7—indicating very strong malodor. They were then asked to proceed to sniff the other samples and provide a rating for malodor remaining. Thus, the remaining malodor was evaluated on a sliding scale, with 1 being very weak malodor. The panelists were instructed to ignore any fragrance that they may detect and rate only the malodor. […] The fabric spray base was an aqueous solution containing 75% distilled water, 20% ethanol, and 5% of non-ionic surfactant. […] The scores reported are therefore the average of 14 replications. The ionones and irones tested were racemic mixtures of their respective α, β, and γ-isomers. The table sets forth what is believed to be the dominant isomer. Apparent duplications (Tests 5, 6 and 8; Tests 10 and 11) are tests on substances obtained from different sources, and have different mixtures of isomers. […] The ionones tested were mixtures of α, β and γ isomers; the table sets for the dominant isomer."}, "[4]": {"test": "Malodor evaluation panel, synthetic bathroom malodor on cotton swatches", "text": "A malodor evaluation panel of 14 persons was assembled and asked to evaluate the odor neutralizing effectiveness of citric acid and dihydro-β-ionone, either alone or in combination. The source of the malodor tested was synthetic bathroom malodor.\nSwatches of 100% untreated cotton fabric were cut into 15 cm (6-inch) squares and were placed on weighing boats. 0.5 grams of synthetic bathroom malodor was pipetted onto each of the swatches. A period of three minutes was allowed for the malodor to be absorbed by the fabric.\nOnto each swatch, 3.0 grams of a composition was sprayed. As a control, 3.0 grams of water was sprayed on certain swatches.\nEach swatch was placed in the middle of a two by two foot (61×61 cm) cubicle and all doors were closed. Actual testing began after thirty minutes.\nThey were then asked to proceed to sniff the other samples and provide a rating for malodor remaining. Thus, the remaining malodor was evaluated on a sliding scale, with 1 being very weak malodor. The panelists were instructed to ignore any fragrance that they may detect and rate only the malodor.\nFor the spray compositions containing citric acid or dihydro-β-ionone alone, each spray composition (having a total weight of 20.00 g) consisted of:\nFor the spray composition containing both citric acid and dihydro-β-ionone, the spray composition (having a total weight of 20.00 g) consisted of:\nNeodol 91-8 and the fabric spray base were the same as those described in Example 1.\nEach panelist tested citric acid, dihydro-β-ionone, and their combinations. The scores reported are therefore the average of 14 replications.\nThe results are summarized in Table 6, in which the scores reported are the average of 14 replications."}, "[5]": {"conditions": "remaining synthetic bathroom malodor, scale 1-7, Table 6"}, "[6]": {"conditions": "remaining synthetic bathroom malodor, scale 1-7"}, "[7]": {"conditions": "remaining cigarette smoke malodor, scale 1-7"}, "[8]": {"conditions": "remaining cigarette smoke malodor, scale 1-7, ketone 1% + citric acid 1%"}},
  "note": "Values joined by “and” are separate entries in the source; they are usually repeats but may differ in a detail not shown here. Equal entries are not always repeated.",
  "data": [
    {"compound": "CCC(=O)C=CC1C(C)=CCCC1(C)C", "note": "(centres unmarked) [1-(2,6,6-trimethyl-2-cyclohexen-1-yl)pent-1-en-3-one]", "values": [
      {"measurement": "Score of Ketone Alone @ 1%", "setting": "[1]; [5]", "value": 2.80},
      {"measurement": "Score of Combination @ 1% + 1%", "setting": "[1]; [6]", "value": 2.70},
      {"measurement": "(Score of Acid) − (Score of Combination)", "setting": "[1]", "value": 2.50},
      {"measurement": "(Score of Ketone) − (Score of Combination)", "setting": "[1]", "value": 0.10}
    ]},
    {"compound": "CC(C)(C)C1CCCCC1=O", "note": "(centres unmarked) [2-tert-butylcyclohexanone]", "values": [
      {"measurement": "Score of Ketone Alone @ 1%", "setting": "[1]; [5]", "value": 4.50},
      {"measurement": "Score of Combination @ 1% + 1%", "setting": "[1]; [6]", "value": 4.10},
      {"measurement": "(Score of Acid) − (Score of Combination)", "setting": "[1]", "value": 0.20},
      {"measurement": "(Score of Ketone) − (Score of Combination)", "setting": "[1]", "value": 0.40}
    ]},
    {"compound": "CCC(C)(C)C1CCC(=O)CC1", "note": "[4-tert-pentylcyclohexanone]", "values": [
      {"measurement": "(Score of Acid) − (Score of Combination)", "setting": "[2]; acid = citric acid", "value": 0.80},
      {"measurement": "(Score of Ketone) − (Score of Combination)", "setting": "[2]; combination with citric acid", "value": 0.30},
      {"measurement": "Score of Ketone Alone @ 1%", "setting": "[2]; [7]", "value": 3.40},
      {"measurement": "Score of Combination @ 1% + 1%", "setting": "[2]; [8]", "value": 3.10},
      {"measurement": "(Score of Ketone) − (Score of Combination)", "setting": "[3]", "value": 0.60},
      {"measurement": "(score of citric acid) − (score of combination)", "setting": "[3]", "value": 0.50},
      {"measurement": "Score of combination 1% + 1%", "setting": "[3]", "value": 2.90},
      {"measurement": "Score alone 1% (alicyclic ketone)", "setting": "[3]", "value": 3.50}
    ]},
    {"compound": "CC(=O)CCC1=C(C)CCCC1(C)C", "note": "[dihydro-β-ionone]", "values": [
      {"measurement": "Score of Combination @ 1% + 1%", "setting": "[4]; remaining synthetic bathroom malodor, scale 1-7, ketone 1% + citric acid 1%", "value": 3.60},
      {"measurement": "(Score of Acid) − (Score of Combination)", "setting": "[4]; synthetic bathroom malodor, acid = citric acid", "value": 1.40},
      {"measurement": "(Score of Ketone) − (Score of Combination)", "setting": "[4]; synthetic bathroom malodor, combination with citric acid", "value": 0.10},
      {"measurement": "Score of Ketone Alone @ 1%", "setting": "[1]; remaining synthetic bathroom malodor, scale 1-7, Table 5", "value": 3.70},
      {"measurement": "(Score of Ketone) − (Score of Combination)", "setting": "[3]", "value": 1.40},
      {"measurement": "(score of citric acid) − (score of combination)", "setting": "[3]", "value": 0.80},
      {"measurement": "Score of combination 1% + 1%", "setting": "[3]", "value": 2.50},
      {"measurement": "Score alone 1% (alicyclic ketone)", "setting": "[3]", "value": 3.90}
    ]},
    {"compound": "CCC(=O)/C=C/C1=C(C)CCCC1(C)C", "note": "[methyl β-ionone]", "values": [
      {"measurement": "(Score of Ketone) − (Score of Combination)", "setting": "[3]", "value": 0.10},
      {"measurement": "(score of citric acid) − (score of combination)", "setting": "[3]", "value": 0.90},
      {"measurement": "Score of combination 1% + 1%", "setting": "[3]", "value": 3.40},
      {"measurement": "Score alone 1% (alicyclic ketone)", "setting": "[3]", "value": 3.50}
    ]},
    {"compound": "C=CCCCCCCCCC(=O)O", "note": "[undecylenic acid]", "values": [
      {"measurement": "Score of Undecylenic Acid @ 1%", "setting": "[2]; remaining cigarette smoke malodor, scale 1-7, undecylenic acid alone", "value": 4.20},
      {"measurement": "Score of Undecylenic Acid @ 1%", "setting": "[1]; remaining synthetic bathroom malodor, scale 1-7, undecylenic acid alone, in the test of that line", "value": "5.00 and 4.30 and 5.10 and 5.20"}
    ]},
    {"compound": "CC(=O)/C=C/C1C(C)=CCCC1(C)C", "note": "(stereo not drawn) [α-ionone]", "values": [
      {"measurement": "(Score of Ketone) − (Score of Combination)", "setting": "[3]", "value": 1.10},
      {"measurement": "(score of citric acid) − (score of combination)", "setting": "[3]", "value": 0.10},
      {"measurement": "Score of combination 1% + 1%", "setting": "[3]", "value": 3.10},
      {"measurement": "Score alone 1% (alicyclic ketone)", "setting": "[3]", "value": 4.20}
    ]},
    {"compound": "CC(=O)/C=C/C1C(C)=CCC(C)C1(C)C", "note": "(stereo not drawn) [α-irone]", "values": [
      {"measurement": "(Score of Ketone) − (Score of Combination)", "setting": "[3]", "value": 0.20},
      {"measurement": "(score of citric acid) − (score of combination)", "setting": "[3]", "value": 0.00},
      {"measurement": "Score of combination 1% + 1%", "setting": "[3]", "value": 3.70},
      {"measurement": "Score alone 1% (alicyclic ketone)", "setting": "[3]", "value": 3.90}
    ]},
    {"compound": "CC(=O)/C=C/C1=C(C)CCCC1(C)C", "note": "[β-ionone]", "values": [
      {"measurement": "Score of Ketone Alone @ 1%", "setting": "[1]; [5]", "value": 4.60},
      {"measurement": "Score of Combination @ 1% + 1%", "setting": "[1]; [6]", "value": 3.30},
      {"measurement": "(Score of Acid) − (Score of Combination)", "setting": "[1]", "value": 1.80},
      {"measurement": "(Score of Ketone) − (Score of Combination)", "setting": "[1]", "value": 1.30},
      {"measurement": "(Score of Ketone) − (Score of Combination)", "setting": "[3]", "value": 0.70},
      {"measurement": "(score of citric acid) − (score of combination)", "setting": "[3]", "value": 1.00},
      {"measurement": "Score of combination 1% + 1%", "setting": "[3]", "value": 3.10},
      {"measurement": "Score alone 1% (alicyclic ketone)", "setting": "[3]", "value": 3.80}
    ]},
    {"compound": "citric acid", "values": [
      {"measurement": "Score of Citric Acid @ 1%", "setting": "[2]; remaining cigarette smoke malodor, scale 1-7, citric acid alone, in the test of that line", "value": "3.90 and 4.80"},
      {"measurement": "Score of Citric Acid @ 1%", "setting": "[4]; remaining synthetic bathroom malodor, scale 1-7, citric acid alone", "value": 5.00}
    ]},
    {"compound": "methyl α-ionone", "values": [
      {"measurement": "(Score of Acid) − (Score of Combination)", "setting": "[2]; acid = citric acid", "value": 1.10},
      {"measurement": "(Score of Acid) − (Score of Combination)", "setting": "[2]; acid = undecylenic acid", "value": 1.40},
      {"measurement": "(Score of Ketone) − (Score of Combination)", "setting": "[2]; combination with citric acid", "value": 0.50},
      {"measurement": "(Score of Ketone) − (Score of Combination)", "setting": "[2]; combination with undecylenic acid", "value": 0.10},
      {"measurement": "Score of Ketone Alone @ 1%", "setting": "[2]; [7]", "value": 4.20},
      {"measurement": "Score of Combination @ 1% + 1%", "setting": "[2]; [8]", "value": 3.70},
      {"measurement": "Score of Combination @ 1% + 1%", "setting": "[2]; remaining cigarette smoke malodor, scale 1-7, ketone 1% + undecylenic acid 1%", "value": 2.80},
      {"measurement": "Score of Ketone Alone @ 1%", "setting": "[1]; [5]", "value": 3.80},
      {"measurement": "Score of Combination @ 1% + 1%", "setting": "[1]; [6]", "value": 3.40},
      {"measurement": "(Score of Acid) − (Score of Combination)", "setting": "[1]", "value": 1.60},
      {"measurement": "(Score of Ketone) − (Score of Combination)", "setting": "[1]", "value": 0.40}
    ]}
  ]
}
